{
  "source": "patent US12214008B2",
  "about": "“Protein interfaces” (SyntheX, Inc., priority 2016, dated 2025)",
  "key": {"[1]": {"system": "SSP-25 cells", "assay": "xCELLigence cell death assay", "format": "cell-based", "conditions": "for rescue of compound 10-induced cell death by ruthenium red: 40 μM Ruthenium red added to cells treated with 10 μM compound 10", "protocol": "Further, singly-dosed cells continued to recover, which indicated reduced general cytotoxicity of the compound in the media or the lysed cells.\nTo optimize cellular activity, compounds were tested in xCELLigence cell death assays against various cell lines. An example of the workflow used is shown using A549 cells and compound 10 in FIGS. 15 and 16. […] Data from xCELLigence traces at different compound concentrations from FIG. 15 was then used to generate a dose-response curve, which was then subjected to nonlinear regression using a sigmoidal dose-response model to generate IC50s and R2 values for cell death for each compound/cell line combination (FIG. 16).\nTo further investigate the hypothesis that peptide binding to RAD51 in cells causes cell death via increases in intracellular free calcium levels, compound 10 alone and in combination with two different intracellular calcium chelators (1,2-Bis(2-aminophenoxy) ethane-N,N,N′,N′-tetraacetic acid tetrakis(acetoxymethyl ester) aka “BAPTA-AM”, and ammoniated ruthenium oxychloride aka “ruthenium red”) was tested in an xCELLigence™ cell death assay as in Example 3. The intracellular calcium chelators alone were also evaluated on the cells."}, "[2]": {"system": "GM08505, Blm cells", "protocol": "To assess the ability of compounds disclosed herein to rescue the drug-sensitivity of Bloom's Syndrome patient cells, GM08505, Blm cells were treated with PBS, 5 μM etoposide, or 5 μM etoposide and 10 μM compound 5."}, "[3]": {"system": "PC3 cells", "assay": "xCELLigence cell death assay", "conditions": "60 μM at 24 hours", "quoted_text": "First, 5,000 PC3 cells were plated, and adherence and growth was measured for 24 hours using live measurements of current impedance through the plate using the xCELLigence™ instrument. […] This was repeated again at the 124 hour mark."}, "[4]": {"molecular_target": "T1, RAD51 (Homo sapiens, UniProt Q06609)", "T1 sequence (Q06609 1-339)": "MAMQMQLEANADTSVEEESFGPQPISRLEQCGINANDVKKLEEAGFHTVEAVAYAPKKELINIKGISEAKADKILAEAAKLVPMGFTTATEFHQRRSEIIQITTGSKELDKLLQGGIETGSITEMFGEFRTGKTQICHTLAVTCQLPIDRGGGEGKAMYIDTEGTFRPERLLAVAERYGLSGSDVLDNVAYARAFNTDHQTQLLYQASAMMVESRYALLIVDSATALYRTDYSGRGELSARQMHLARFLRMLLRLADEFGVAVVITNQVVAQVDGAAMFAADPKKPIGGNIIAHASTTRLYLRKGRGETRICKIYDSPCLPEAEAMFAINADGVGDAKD", "assay": "microscale thermophoresis", "format": "binding", "conditions": "0 vs 1 mM Ca2+", "protocol": "To test the interaction between calcium binding and peptide binding to RAD51, the Kds of active (Compound 5, 10) peptides for RAD51 were tested by a microscale thermophoresis assay, and the Kd of compound 5 was additionally performed in the presence of 1 mM calcium.\nMicroscale thermophoresis was performed as previously described (see, for e.g. Jerabek-Willemsen, M., Wienken, C. J., Braun, D., Baaske, P. & Duhr, S. Molecular interaction studies using microscale thermophoresis. Assay Drug Dev. Technol. 9, 342-353 (2011)). The affinity of the Compound was measured using the Monolith NT.115 from Nanotemper Technologies. Rad51 was fluorescently labelled according to the manufacturer's protocol and the labelled protein used for each assay was about 500 nM. A solution of unlabelled peptide was diluted for appropriate serial concentration gradient. The samples were loaded into silica capillaries (Polymicro Technologies). Measurements were performed at room temperature in buffer containing PBS, 0.1% Tween 20, 0.5 mM ATP, 2.5 uM ssDNA, with 1 mM CaCl2 (when mentioned). Measurements were done using 12% LED power and 60% MST power. The assays were repeated three times for each affinity measurement. Data analyses were performed using Nanotemper Analysis software and OriginPro 8.0 software provided by the manufacturer."}, "[5]": {"system": "HeLa", "conditions": "compound 5 at 5 μM, compound 1 at 10 μM", "protocol": "(§1) To assess the specificity of compounds disclosed herein in targeting cancers with mutations in the BRCA2 pathway, compounds 1 and 5 were tested against HeLa (human cervical cancer) and SSP-25 cells (cholangiocarcinoma cell line) (FIG. 2). To measure killing of the cells by compounds 1 and 5, a cell stain (CytoTox Red™) was used, which can be measured spectrophotometrically, and is indicative of cell viability. First, 5,000 cells were incubated in 96-well culture plates overnight. The media (RPMI with 10% FBS) was removed and replaced with serum free media (RPMI) containing 125 nM CytoTox Red™. FITC-labeled compounds 5 and 1 were added to concentrations of 5 μM and 10 μM, respectively, and imaging commenced using an IncuCyte™ instrument using 15 minute time points. 2× serum-containing media was added after one hour incubation, and the cells were imaged every 2 hours. To detect CytoTox Red™ the following parameters were used: Excitation Wavelength: 585 nm; Passband: [565,605] nm and Emission Wavelength: 635 nm; Passband: [625, 705] nm. To detect compounds 5 and 1 using the FITC label, the following parameters were used: Excitation Wavelength: 460 nm; Passband: [440,480] nm and Emission Wavelength: 524 nm; Passband: [504,544] nm was used."}, "[6]": {"system": "SSP-25 cells", "conditions": "compound 5 at 5 μM, compound 1 at 10 μM; vs PBS", "protocol": "as §1"}, "[7]": {"system": "SSP-25 cells", "assay": "MTT growth inhibition assay", "format": "cell-based", "conditions": "5 μM or 10 μM, 48 hours of cell growth, vs water mock", "protocol": "To assess the growth inhibitory properties of compounds disclosed herein, 5 μM or 10 μM of compounds 1, 3, and 5 were tested against a water mock treatment for growth inhibition of SSP-25 cells using an MTT assay after 48 hours of cell growth."}, "[8]": {"system": "SSP-25 cells", "assay": "growth assay (percent confluence)", "format": "cell-based", "conditions": "5 μM or 10 μM, compared to PBS", "protocol": "A growth assay was performed using SSP-25 cells with 5 μM or 10 μM of compound 1. […] The experimental protocol described in Example 3 was used for the growth assay.\nThe same growth assay was repeated using 10 μM of compound 1 and compound 2. Compound 2 contains a single substitution within the core consensus sequence, which interrupts the binding of compound 2 to RAD51."}},
  "note": "“Also recorded” adds a separate entry of the source. Residues, ends and D or L forms follow the SMILES beside them. Groups on a side chain read outwards from the residue. *: point of attachment. 5FAM = O=C1OC2(c3ccc(O)cc3Oc3cc(O)ccc32)c2ccc(C(=O)*)cc21; Ahx = NCCCCCC(=O)O",
  "data": [
    {"compound": "CC(=O)OCOC(=O)CN(CC(=O)OCOC(C)=O)c1ccccc1OCCOc1ccccc1N(CC(=O)OCOC(C)=O)CC(=O)OCOC(C)=O", "note": "[BAPTA-AM, 1,2-Bis(2-aminophenoxy) ethane-N,N,N′,N′-tetraacetic acid tetrakis(acetoxymethyl ester)]", "values": [
      {"measurement": "rescue of compound 10-induced cell death by BAPTA-AM", "setting": "[1]; 10 μM BAPTA-AM added to cells treated with 10 μM compound 10", "result": "able to counteract the cell-death inducing effects of compound 10; also recorded: rescues cell death relative to compound alone; also recorded: rescues cell death due to compound 10"}
    ]},
    {"compound": "CSCC[C@H](NC(=O)[C@H](CCCNC(=N)N)NC(=O)[C@H](CO)NC(=O)[C@@H](NC(=O)[C@H](CCCNC(=N)N)NC(=O)[C@H](CC(C)C)NC(=O)[C@H](CCCNC(=N)N)NC(=O)[C@@H](NC(=O)CNC(=O)[C@H](CC(C)C)NC(=O)[C@H](CCCNC(=N)N)NC(=O)[C@H](CCCCN)NC(=O)[C@H](CCCNC(=N)N)NC(=O)[C@H](CCCNC(=N)N)NC(=O)[C@H](CCCNC(=N)N)NC(=O)[C@H](CCCNC(=N)N)NC(=O)[C@H](CCCNC(=N)N)NC(=O)[C@H](CCCNC(=N)N)NC(=O)[C@H](CCCNC(=N)N)NC(=O)[C@H](CCCCNC(=O)CCCCCNC(=O)c1ccc2c(c1)C(=O)OC21c2ccc(O)cc2Oc2cc(O)ccc21)NC(C)=O)C(C)C)C(C)C)C(=O)N[C@@H](CC(C)C)C(N)=O", "note": "[Compound 5] (Ac-K([Ahx-5FAM])RRRRRRRKRLGVRLRVSRML-NH2)", "values": [
      {"measurement": "rescue of etoposide-induced growth defect of Blm cells (percent confluence)", "setting": "[2]; 5 μM etoposide and 10 μM compound 5, comparable to PBS", "result": "able to rescue the hypersensitivity of a Bloom's cell line (GM08505) to a genotoxic stress (etoposide); also recorded: suppression of cell growth defects induced by etoposide"},
      {"measurement": "cell death of PC3 cells (cell index)", "setting": "[3]", "result": "acute cell death kinetics; also recorded: highly potent"},
      {"measurement": "PC3 cells eliminated", "setting": "[3]; 100 μM more at 84 and 124 hours, compared to compound 6 and PBS controls", "result": "over 75%"},
      {"measurement": "efficacy in acidified media", "setting": "[1]; 30 μM added at 72 hours to previously untreated cells", "result": "efficacy of compound 5 in acidified media"},
      {"measurement": "cell death kinetics (cell index)", "setting": "[1]; 30 μM compound 5 added at 20 hours", "result": "acute cell death kinetics"},
      {"measurement": "increase of Kd when calcium (Ca2+) raised from 0 to 1 mM", "setting": "[4]", "result": 3.4, "unit": "fold"},
      {"measurement": "cell death (CytoTox Red staining) in HeLa cells", "setting": "[5]", "result": "little cell death is generated in the HeLa cells compared to the SSP-25 cells"},
      {"measurement": "cell death (CytoTox Red staining) in SSP-25 cells", "setting": "[6]", "result": "greatest efficacy in the SSP-25 cells"},
      {"measurement": "growth inhibition of SSP-25 cells", "setting": "[7]", "result": "strongest inhibitory effect, regardless of concentration"}
    ]},
    {"compound": "N.N.N.N.N.N.N.N.N.N.N.N.N.N.[Cl-].[Cl-].[Cl-].[Cl-].[Cl-].[Cl-].[O-2].[O-2].[Ru+3].[Ru+3].[Ru+4]", "note": "[Ruthenium red, ammoniated ruthenium oxychloride]", "values": [
      {"measurement": "rescue of compound 10-induced cell death by ruthenium red", "setting": "[1]", "result": "able to counteract the cell-death inducing effects of compound 10; also recorded: rescues cell death relative to compound alone"},
      {"measurement": "rescue of compound 10-induced cell death by ruthenium red", "setting": "[1]; listed as ruthenium red", "result": "rescues cell death due to compound 10"}
    ]},
    {"compound": "COc1cc([C@@H]2c3cc4c(cc3[C@@H](O[C@@H]3O[C@@H]5CO[C@@H](C)O[C@H]5[C@H](O)[C@H]3O)[C@H]3COC(=O)[C@H]23)OCO4)cc(OC)c1O", "note": "[etoposide, reference compound]", "values": [
      {"measurement": "growth of Blm cells (percent confluence)", "setting": "[2]; 5 μM etoposide alone", "result": "growth of the Blm cells was affected"}
    ]},
    {"compound": "Ac-K(C6_5FAM)-QSLRLGLSRLARVKRLHPGARRRRRRRR-NH2 (Ac-K(C6_5FAM)QSLRLGLSRLARVKRLHPGARRRRRRRR-NH2) [Compound 1]", "values": [
      {"measurement": "percent confluence of SSP-25 cells", "setting": "[8]", "result": "decreased the percent confluence of the cells"},
      {"measurement": "growth inhibition of SSP-25 cells", "setting": "[7]", "result": "dose-dependent effect on the growth of SSP-25"}
    ]},
    {"compound": "KQSLRLGLSRLARVKRLHPGARRRRRRRR [Compound 3]", "values": [
      {"measurement": "growth inhibition of SSP-25 cells", "setting": "[7]", "result": "dose-dependent effect on the growth of SSP-25"}
    ]}
  ]
}
